Key:
Test in all cases: Dundee kinase panel
Assay type in all cases: biochemical
Settings in all cases: for remaining activity at 1 µM: read-out: residual activity
BRSK1 = biological target: T1, BRSK1 (Homo sapiens, UniProt Q8TDC3)
T1 construct: lines 1-140) and Reaction Biology
T1 sequence (Q8TDC3 1-778): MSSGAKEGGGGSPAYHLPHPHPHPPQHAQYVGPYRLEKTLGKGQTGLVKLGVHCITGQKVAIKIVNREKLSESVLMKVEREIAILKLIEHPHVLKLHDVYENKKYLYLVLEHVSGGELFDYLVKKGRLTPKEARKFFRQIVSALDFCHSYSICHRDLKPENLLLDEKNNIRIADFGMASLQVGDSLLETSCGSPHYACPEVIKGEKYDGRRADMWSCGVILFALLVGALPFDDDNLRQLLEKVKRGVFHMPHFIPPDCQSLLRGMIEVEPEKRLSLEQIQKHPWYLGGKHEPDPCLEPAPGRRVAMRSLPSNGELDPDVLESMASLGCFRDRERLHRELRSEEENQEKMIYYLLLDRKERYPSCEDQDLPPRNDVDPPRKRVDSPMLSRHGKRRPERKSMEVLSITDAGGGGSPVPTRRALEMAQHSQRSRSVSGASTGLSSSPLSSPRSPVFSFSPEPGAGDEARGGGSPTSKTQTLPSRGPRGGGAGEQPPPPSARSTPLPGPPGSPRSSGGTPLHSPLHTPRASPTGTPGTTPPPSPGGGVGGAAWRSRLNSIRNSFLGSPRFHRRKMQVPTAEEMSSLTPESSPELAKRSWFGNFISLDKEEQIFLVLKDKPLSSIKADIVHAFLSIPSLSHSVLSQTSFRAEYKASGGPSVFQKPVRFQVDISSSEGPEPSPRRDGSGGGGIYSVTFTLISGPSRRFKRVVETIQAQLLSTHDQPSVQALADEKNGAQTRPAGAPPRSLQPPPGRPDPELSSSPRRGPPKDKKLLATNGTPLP
Method: (§1) Compounds were screened at 1 μM. For key hits, pIC50 values were then determined by HTRF as above. […] Stability in mouse and human liver microsomes was determined by Cyprotex.

ERK2 = biological target: T2, ERK2 (Homo sapiens, UniProt P28482)
T2 construct: lines 1-140) and Reaction Biology
T2 sequence (P28482 whole entry): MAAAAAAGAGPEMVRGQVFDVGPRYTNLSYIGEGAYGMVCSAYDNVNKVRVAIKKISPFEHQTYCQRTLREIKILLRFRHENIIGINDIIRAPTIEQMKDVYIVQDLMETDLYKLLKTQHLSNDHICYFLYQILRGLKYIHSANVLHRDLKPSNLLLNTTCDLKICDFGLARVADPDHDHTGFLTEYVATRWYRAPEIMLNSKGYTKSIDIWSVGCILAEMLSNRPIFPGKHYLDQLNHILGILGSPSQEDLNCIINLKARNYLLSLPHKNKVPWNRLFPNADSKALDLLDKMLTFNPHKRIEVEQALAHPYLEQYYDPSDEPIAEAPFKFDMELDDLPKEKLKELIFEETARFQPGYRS
Method: as §1

JNK2 = biological target: T3, JNK2 (Homo sapiens, UniProt P45984)
T3 construct: lines 1-140) and Reaction Biology
T3 sequence (P45984 whole entry): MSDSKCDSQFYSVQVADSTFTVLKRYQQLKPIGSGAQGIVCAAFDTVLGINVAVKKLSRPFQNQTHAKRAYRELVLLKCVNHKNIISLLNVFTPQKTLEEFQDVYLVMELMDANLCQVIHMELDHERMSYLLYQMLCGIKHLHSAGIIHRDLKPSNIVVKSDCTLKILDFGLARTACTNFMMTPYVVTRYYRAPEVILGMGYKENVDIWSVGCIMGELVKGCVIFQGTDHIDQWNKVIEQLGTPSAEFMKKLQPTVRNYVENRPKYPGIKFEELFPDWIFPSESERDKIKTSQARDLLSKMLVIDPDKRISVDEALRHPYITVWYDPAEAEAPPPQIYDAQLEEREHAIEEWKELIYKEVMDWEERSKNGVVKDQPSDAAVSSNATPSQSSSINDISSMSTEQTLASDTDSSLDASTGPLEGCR
Method: as §1

NEK6 = biological target: T4, NEK6 (Homo sapiens, UniProt Q9HC98)
T4 construct: lines 1-140) and Reaction Biology
T4 sequence (Q9HC98 whole entry): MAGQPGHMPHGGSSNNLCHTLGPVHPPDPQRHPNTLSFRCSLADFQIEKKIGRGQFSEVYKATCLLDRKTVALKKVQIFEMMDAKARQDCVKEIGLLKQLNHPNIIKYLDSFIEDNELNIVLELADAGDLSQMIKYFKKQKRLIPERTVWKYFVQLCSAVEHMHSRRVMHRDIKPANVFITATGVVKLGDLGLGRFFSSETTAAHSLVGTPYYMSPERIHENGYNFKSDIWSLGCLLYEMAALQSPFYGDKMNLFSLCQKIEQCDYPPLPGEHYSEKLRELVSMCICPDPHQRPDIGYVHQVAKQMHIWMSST
Method: as §1

PDK1 = biological target: T5, PDK1 (Homo sapiens, UniProt O15530)
T5 construct: lines 1-140) and Reaction Biology
T5 sequence (O15530 1-556): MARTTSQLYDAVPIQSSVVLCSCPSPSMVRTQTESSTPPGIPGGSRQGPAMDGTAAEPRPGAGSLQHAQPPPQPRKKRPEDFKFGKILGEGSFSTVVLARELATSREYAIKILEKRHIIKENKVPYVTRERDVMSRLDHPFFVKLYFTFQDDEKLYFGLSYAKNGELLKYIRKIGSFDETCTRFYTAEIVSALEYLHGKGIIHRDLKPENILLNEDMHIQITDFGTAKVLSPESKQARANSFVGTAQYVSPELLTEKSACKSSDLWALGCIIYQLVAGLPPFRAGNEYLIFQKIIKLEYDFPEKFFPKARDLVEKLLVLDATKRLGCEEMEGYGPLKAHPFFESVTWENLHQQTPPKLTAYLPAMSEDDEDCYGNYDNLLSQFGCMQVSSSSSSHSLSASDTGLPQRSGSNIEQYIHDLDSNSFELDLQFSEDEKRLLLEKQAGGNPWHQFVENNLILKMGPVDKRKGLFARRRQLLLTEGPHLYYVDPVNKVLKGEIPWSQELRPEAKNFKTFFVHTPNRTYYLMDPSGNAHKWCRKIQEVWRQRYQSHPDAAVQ
Method: as §1

PIM1 = biological target: T6, PIM1 (Homo sapiens, UniProt P11309)
T6 construct: lines 1-140) and Reaction Biology
T6 sequence (P11309 whole entry): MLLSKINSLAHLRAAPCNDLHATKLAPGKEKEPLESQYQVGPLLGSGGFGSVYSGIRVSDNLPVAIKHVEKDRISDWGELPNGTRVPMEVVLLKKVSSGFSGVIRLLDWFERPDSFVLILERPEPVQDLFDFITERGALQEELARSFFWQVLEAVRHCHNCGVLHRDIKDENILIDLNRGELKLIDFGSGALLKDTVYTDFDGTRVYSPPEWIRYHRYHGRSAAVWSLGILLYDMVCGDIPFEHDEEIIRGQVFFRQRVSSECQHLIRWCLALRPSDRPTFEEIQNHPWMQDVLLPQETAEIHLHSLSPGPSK
Method: as §1

PKCz = biological target: T7, PKCz (Homo sapiens, UniProt Q05513)
T7 construct: lines 1-140) and Reaction Biology
T7 sequence (Q05513 1-592): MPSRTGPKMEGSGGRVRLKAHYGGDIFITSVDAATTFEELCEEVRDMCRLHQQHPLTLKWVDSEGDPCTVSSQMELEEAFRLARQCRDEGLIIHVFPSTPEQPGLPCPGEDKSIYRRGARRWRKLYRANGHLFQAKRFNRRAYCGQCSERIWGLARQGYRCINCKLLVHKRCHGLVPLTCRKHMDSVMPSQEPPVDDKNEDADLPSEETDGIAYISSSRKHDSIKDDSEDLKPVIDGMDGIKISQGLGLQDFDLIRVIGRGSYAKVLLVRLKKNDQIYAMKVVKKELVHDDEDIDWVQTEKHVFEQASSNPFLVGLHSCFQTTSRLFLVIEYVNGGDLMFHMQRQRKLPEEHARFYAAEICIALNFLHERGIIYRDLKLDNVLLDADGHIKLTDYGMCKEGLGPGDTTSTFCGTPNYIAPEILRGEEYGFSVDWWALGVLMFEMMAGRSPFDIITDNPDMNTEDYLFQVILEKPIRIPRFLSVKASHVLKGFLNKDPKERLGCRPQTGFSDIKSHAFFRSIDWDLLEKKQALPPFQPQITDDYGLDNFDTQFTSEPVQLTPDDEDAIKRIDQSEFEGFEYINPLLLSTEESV
Method: as §1

TSSK1 = biological target: T8, TSSK1 (Homo sapiens, UniProt Q9BXA7)
T8 construct: lines 1-140) and Reaction Biology
T8 sequence (Q9BXA7 1-367): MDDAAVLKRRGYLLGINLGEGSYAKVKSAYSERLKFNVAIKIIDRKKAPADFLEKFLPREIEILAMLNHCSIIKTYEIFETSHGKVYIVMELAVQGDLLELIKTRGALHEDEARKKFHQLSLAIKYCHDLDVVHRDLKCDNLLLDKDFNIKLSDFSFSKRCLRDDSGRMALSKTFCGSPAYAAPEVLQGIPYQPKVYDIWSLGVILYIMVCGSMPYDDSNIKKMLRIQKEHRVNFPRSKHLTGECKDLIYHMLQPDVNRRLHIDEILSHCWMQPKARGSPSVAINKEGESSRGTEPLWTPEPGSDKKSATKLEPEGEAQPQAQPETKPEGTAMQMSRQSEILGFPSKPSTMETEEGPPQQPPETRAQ
Method: as §1

`O=C1Cc2c([nH]c3ccc(Br)cc23)-c2ccccc2N1` [Kenpaullone] showed a remaining activity at 1 µM (BRSK1) of 55%, a remaining activity at 1 µM (ERK2) of 124% and a remaining activity at 1 µM (JNK2) of 94%. The remaining activity at 1 µM (NEK6) was 99%, the remaining activity at 1 µM (PDK1) was 64% and the remaining activity at 1 µM (PIM1) was 90%. For the same compound, the remaining activity at 1 µM (PKCz) was 105% and the remaining activity at 1 µM (TSSK1) was 46%.

In the case of `O=C1Nc2ccc(I)cc2/C1=C/c1cc(Br)c(O)c(Br)c1` [GW5074], the remaining activity at 1 µM (BRSK1) is reported as 68%, the remaining activity at 1 µM (ERK2) is reported as 106% and the remaining activity at 1 µM (JNK2) is reported as 80%. The remaining activity at 1 µM (NEK6) was 82%, the remaining activity at 1 µM (PDK1) was 22% and the remaining activity at 1 µM (PIM1) was 76%. For the same compound, the remaining activity at 1 µM (PKCz) was 88% and the remaining activity at 1 µM (TSSK1) was 73%.

With `Nc1ncc(C(=O)NC2CN(C(=O)C3CC3)C2)c2ccc(-c3cccc(F)c3)nc12` [GNE-495] the residual activity (BRSK1; 1 μM) was 71%, the residual activity (ERK2; 1 μM) was 104% and the residual activity (JNK2; 1 μM) was 100%. It also gave a residual activity (NEK6; 1 μM) of 111%, a residual activity (PDK1; 1 μM) of 90% and a residual activity (PIM1; 1 μM) of 103%. The residual activity (PKCz; 1 μM) was 82% and the residual activity (TSSK1; 1 μM) was 77%.

`Oc1ncnc2c1c(-c1ccccc1)cn2-c1ccccc1` [F1386-0303, 5,7-diphenyl-7H-pyrrolo[2,3-d]pyrimidin-4-ol] showed a remaining activity at 1 µM (BRSK1) of 84%, a remaining activity at 1 µM (ERK2) of 99% and a remaining activity at 1 µM (JNK2) of 94%. It also gave a remaining activity at 1 µM (NEK6) of 128%, a remaining activity at 1 µM (PDK1) of 103% and a remaining activity at 1 µM (PIM1) of 122%. The remaining activity at 1 µM (PKCz) was 108% and the remaining activity at 1 µM (TSSK1) was 109%.

In the case of `COCCOc1ccc(-c2cn(-c3ccccc3)c3nc[nH]c(=O)c23)cc1` [DMX-5804, 5-[4-(2-methoxy-ethoxy)-phenyl]-7-phenyl-3,7-dihydro-pyrrolo[2,3-d]pyrimidin-4-one], the remaining activity at 1 µM (BRSK1) is reported as 97%, the remaining activity at 1 µM (ERK2) is reported as 76% and the remaining activity at 1 µM (JNK2) is reported as 103%. The remaining activity at 1 µM (NEK6) was 101%, the remaining activity at 1 µM (PDK1) was 89% and the remaining activity at 1 µM (PIM1) was 98%. It also gave a remaining activity at 1 µM (PKCz) of 121% and a remaining activity at 1 µM (TSSK1) of 103%.

Reference: PMC6458995, “MAP4K4 Inhibition Promotes Survival of Human Stem Cell-Derived Cardiomyocytes and Reduces Infarct Size In Vivo” (Cell Stem Cell, 2019)
